Experimental data taken from US9795140B2, “Molecules having pesticidal utility, and intermediates, compositions, and processes, related thereto” (priority 2015, dated 2017).

Experiments:
Assay type in all cases: in vivo
[1] = tested on: Beet Armyworm (Spodoptera exigua, LAPHEG); test: Bioassay on Beet Armyworm (BAW), 128-well diet tray assay; conditions: 168 h, 50 μg/cm^2 on artificial diet, second instar larvae, 25° C., five to seven days, average of eight wells, read-out: BAW % Control (or Mortality) rating
Summary of the method: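 Second instar larvae were exposed to diet treated at 50 μg/cm^2 for five to seven days at 25° C.; mortality was averaged over eight wells.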

[2] = tested on: Cabbage Looper (Trichoplusia ni, TRIPNI); test: Bioassay on Cabbage Looper (CL), 128-well diet tray assay; conditions: 168 h, 50 μg/cm^2 on artificial diet, second instar larvae, 25° C., five to seven days, average of eight wells, read-out: CL % Control (or Mortality) rating
Summary of the method: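 Second-instar T. ni larvae (one to five per well) were placed on artificial diet treated with 50 μg/cm^2 compound, applied in 90:10 acetone-water and dried. Trays were held five to seven days at 25 °C under 14:10 light-dark. Percent mortality per well was averaged over eight wells.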

[3] = tested on: Green Peach Aphid (Myzus persicae, MYZUPE); test: Bioassay on Green Peach Aphid (GPA), foliar spray on cabbage seedlings; conditions: 72 h, 200 ppm spray on infested cabbage seedlings, three days, Abbott corrected % control, read-out: GPA % Control (or Mortality) rating
Method: Certain molecules disclosed in this document were tested against GPA using procedures described in the following example. In the reporting of the results, the “GPA & YFM Rating Table” was used (See Table Section).
Cabbage seedlings grown in 3-inch pots, with 2-3 small (3-5 cm) true leaves, were used as test substrate. The seedlings were infested with 20-50 GPA (wingless adult and nymph stages) one day prior to chemical application. Four pots with individual seedlings were used for each treatment. Test molecules (2 mg) were dissolved in 2 mL of acetone/methanol (1:1) solvent, forming stock solutions of 1000 ppm test molecule. The stock solutions were diluted 5× with 0.025% Tween 20 in water to obtain the solution at 200 ppm test molecule. A hand-held aspirator-type sprayer was used for spraying a solution to both sides of […] leaves until runoff. Reference plants (solvent check) were sprayed with the diluent only containing 20% by volume of acetone/methanol (1:1) solvent. Treated plants were held in a holding room for three days at approximately 25° C. and ambient relative humidity (RH) prior to grading. Evaluation was conducted by counting the number of live aphids per plant under a microscope. Percent control was measured using Abbott's correction formula (W. S. Abbott, “A Method of Computing the Effectiveness of an Insecticide” J. Econ. Entomol. 18 (1925), pp. 265-267) as follows. Corrected % Control=100*(X−Y)/X where X=No. of live aphids on solvent check plants and Y=No. of live aphids on treated plants. The results are indicated in the table entitled “Table ABC: Biological Results” (See Table Section).

[4] = tested on: Yellow Fever Mosquito (Aedes aegypti, AEDSAE); test: Bioassay on Yellow Fever Mosquito (YFM) larvae, 96-well plate; conditions: about 1 day-old larvae, room temperature, 3 days, scored on mortality
Summary of the method: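 Compound stocks at 4000 ppm in DMSO were diluted with 90:10 water/acetone, and 15 μL aliquots were dispensed into six replicate plates. About 1-day-old larvae in liver-powder water were added per well. Plates were covered and held at room temperature for 3 days before each well was scored for mortality.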

| Compound | mortality at 50 µg/cm2 [1] [%] | mortality at 50 µg/cm2 [2] [%] | mortality at 200 ppm [3] [%] | YFM % Control (or Mortality) rating [4] |
| --- | --- | --- | --- | --- |
| O=C(NCC(F)(F)C(F)(F)F)c1cc(NC(=O)[C@H]2[C@H](c3cc(Cl)cc(Cl)c3)C2(Cl)Cl)ccc1Cl (relative stereo) [F49, trans-2-Chloro-5-(2,2-dichloro-3-(3,5-dichlorophenyl)cyclopropane-1-carboxamido)-N-(2,2,3,3,3-pentafluoropropyl)benzamide] | 50 to 100 | 50 to 100 | 80 to 100 | A (80-100) |
| O=C(NCCC(F)(F)F)c1cc(NC(=O)[C@H]2[C@H](c3cc(Cl)cc(Cl)c3)C2(Cl)Cl)ccc1Cl (relative stereo) [F40, trans-2-Chloro-5-(2,2-dichloro-3-(3,5-dichlorophenyl)cyclopropane-1-carboxamido)-N-(3,3,3-trifluoropropyl)benzamide] | 50 to 100 | 50 to 100 | 80 to 100 | A (80-100) |
| O=C(NCCCF)c1cc(NC(=O)[C@H]2[C@H](c3cc(Cl)cc(Cl)c3)C2(Cl)Cl)ccc1Cl (relative stereo) [F44, trans-2-Chloro-5-(2,2-dichloro-3-(3,5-dichlorophenyl)cyclopropane-1-carboxamido)-N-(3-fluoropropyl)benzamide] | 50 to 100 | 50 to 100 | 80 to 100 | A (80-100) |
| O=C(NOCc1ccc(F)cc1)c1cc(NC(=O)C2C(c3cc(Cl)cc(Cl)c3)C2(Cl)Cl)ccc1Cl (stereo not drawn) [F17, trans-N-2-Chloro-5-(2,2-dichloro-3-(3,5-dichlorophenyl)cyclopropane-1-carboxamido)-N-((4-fluorobenzyl)oxy)benzamide] | 50 to 100 | 50 to 100 | 0 to 80 | A (80-100) |
| O=C(NCCOCC1CC1)c1cc(NC(=O)[C@H]2[C@H](c3cc(Cl)cc(Cl)c3)C2(Cl)Cl)ccc1Cl (relative stereo) [F43, trans-2-Chloro-N-(2-(cyclopropylmethoxy)ethyl)-5-(2,2-dichloro-3-(3,5-dichlorophenyl)cyclopropane-1-carboxamido)benzamide] | 50 to 100 | 50 to 100 | 80 to 100 | – |
| CCCNC(=O)c1cc(NC(=O)[C@H]2[C@H](c3cc(Cl)cc(Cl)c3)C2(Cl)Cl)ccc1Cl (relative stereo) [F56, trans-2-Chloro-5-(2,2-dichloro-3-(3,5-dichlorophenyl)cyclopropane-1-carboxamido)-N-propylbenzamide] | 50 to 100 | 50 to 100 | 80 to 100 | A (80-100) |
| O=C(NCCc1ccc(F)cc1)c1cc(NC(=O)C2C(c3cc(Cl)cc(Cl)c3)C2(Cl)Cl)ccc1Cl (stereo not drawn) [F19, trans-N-2-Chloro-5-(2,2-dichloro-3-(3,5-dichlorophenyl)cyclopropane-1-carboxamido)-N-(4-fluorophenethyl)benzamide] | 50 to 100 | 50 to 100 | 0 to 80 | A (80-100) |
| CCNC(=O)c1cc(NC(=O)[C@H]2[C@H](c3cc(Cl)cc(Cl)c3)C2(Cl)Cl)ccc1Cl (relative stereo) [F46, trans-2-Chloro-5-(2,2-dichloro-3-(3,5-dichlorophenyl)cyclopropane-1-carboxamido)-N-ethylbenzamide] | 50 to 100 | 50 to 100 | 80 to 100 | A (80-100) |
| O=C(NCc1ccncc1)c1cc(NC(=O)[C@H]2[C@H](c3cc(Cl)c(Cl)c(Cl)c3)C2(Cl)Cl)ccc1Cl (relative stereo) [F13, trans-2-Chloro-5-(2,2-dichloro-3-(3,4,5-trichlorophenyl)cyclopropane-1-carboxamido)-N-(pyridin-4-ylmethyl)benzamide] | 50 to 100 | 50 to 100 | 0 to 80 | A (80-100) |
| C[C@H](CSCC(F)(F)F)NC(=O)c1cc(NC(=O)C2C(c3cc(Cl)cc(Cl)c3)C2(Cl)Cl)ccc1Cl (stereo in doubt) [PF3, trans-2-Chloro-5-(2,2-dichloro-3-(3,5-dichlorophenyl)cyclopropane-1-carboxamido)-N—((R)-1-((2,2,2-trifluoroethyl)thio)propan-2-yl)benzamide] | 50 to 100 | 50 to 100 | 80 to 100 | B (More than 0-Less than 80) |
| CC(C)(CS(C)(=O)=O)NC(=O)c1cc(NC(=O)[C@H]2[C@H](c3cc(Cl)cc(Cl)c3)C2(Cl)Cl)ccc1Cl (relative stereo) [F42, trans-2-Chloro-5-(2,2-dichloro-3-(3,5-dichlorophenyl)cyclopropane-1-carboxamido)-N-(2-methyl-1-(methylsulfonyl)propan-2-yl)benzamide] | 50 to 100 | 50 to 100 | 0 to 80 | A (80-100) |
| O=C(NCc1ccc(F)cc1)c1cc(NC(=O)[C@H]2[C@H](c3cc(Cl)cc(Cl)c3)C2(Cl)Cl)ccc1Cl (relative stereo) [F28, trans-2-Chloro-5-(2,2-dichloro-3-(3,5-dichlorophenyl)cyclopropane-1-carboxamido)-N-(4-fluorobenzyl)benzamide] | 50 to 100 | 50 to 100 | 80 to 100 | A (80-100) |
| O=C(NOCC1CC1)c1cc(NC(=O)C2C(c3cc(Cl)c(Cl)c(Cl)c3)C2(Cl)Cl)ccc1Cl (stereo not drawn) [F15, trans-N-2-Chloro-N-(cyclopropylmethoxy)-5-(2,2-dichloro-3-(3,4,5-trichlorophenyl)cyclopropane-1-carboxamido)benzamide] | 50 to 100 | 50 to 100 | 80 to 100 | A (80-100) |
| N#CCCNC(=O)c1cc(NC(=O)[C@H]2[C@H](c3cc(Cl)cc(Cl)c3)C2(Cl)Cl)ccc1Cl (relative stereo) [F37, trans-2-Chloro-N-(2-cyanoethyl)-5-(2,2-dichloro-3-(3,5-dichlorophenyl)cyclopropane-1-carboxamido)benzamide] | 50 to 100 | 50 to 100 | 0 to 80 | A (80-100) |
| O=C(NOCC1CC1)c1cc(NC(=O)C2C(c3cc(Cl)cc(Cl)c3)C2(Cl)Cl)ccc1Cl (stereo not drawn) [F16, trans-N-2-Chloro-N-(cyclopropylmethoxy)-5-(2,2-dichloro-3-(3,5-dichlorophenyl)cyclopropane-1-carboxamido)benzamide] | 50 to 100 | 50 to 100 | 0 to 80 | A (80-100) |
| CC(C)CNC(=O)c1cc(NC(=O)[C@H]2[C@H](c3cc(Cl)cc(Cl)c3)C2(Cl)Cl)ccc1Cl (relative stereo) [F30, trans-2-chloro-5-(2,2-dichloro-3-(3,5-dichlorophenyl)cyclopropane-1-carboxamido)-N-isobutylbenzamide] | 50 to 100 | 50 to 100 | 80 to 100 | A (80-100) |
| O=C(NCc1ccc(C(F)(F)F)cc1)c1cc(NC(=O)[C@H]2[C@H](c3cc(Cl)cc(Cl)c3)C2(Cl)Cl)ccc1Cl (relative stereo) [F41, trans-2-Chloro-5-(2,2-dichloro-3-(3,5-dichlorophenyl)cyclopropane-1-carboxamido)-N-(4-(trifluoromethyl)benzyl)benzamide] | 50 to 100 | 50 to 100 | 0 | A (80-100) |
| O=C(NOCc1ccc(F)cc1)c1cc(NC(=O)C2C(c3cc(Cl)c(Cl)c(Cl)c3)C2(Cl)Cl)ccc1Cl (stereo not drawn) [F18, trans-N-2-Chloro-5-(2,2-dichloro-3-(3,4,5-trichlorophenyl)cyclopropane-1-carboxamido)-N-((4-fluorobenzyl)oxy)benzamide] | 50 to 100 | 50 to 100 | 0 to 80 | – |
